Measured values: ChEMBL document CHEMBL5113481, “Design, synthesis and biological evaluation of quinoline-2-carbonitrile-based hydroxamic acids as dual tubulin polymerization and histone deacetylases inhibitors” (Eur J Med Chem, 2022)
Calls of active or inactive are those of the source. The calls are words filed in the database; no cut-off is given here.

Assays:
Histone deacetylase 11 = biological target: T1, Histone deacetylase 11 (Homo sapiens, UniProt Q96DB2); assay: Inhibition of HDAC11 (unknown origin) measured by fluorometry assay
T1 sequence (Q96DB2 whole entry): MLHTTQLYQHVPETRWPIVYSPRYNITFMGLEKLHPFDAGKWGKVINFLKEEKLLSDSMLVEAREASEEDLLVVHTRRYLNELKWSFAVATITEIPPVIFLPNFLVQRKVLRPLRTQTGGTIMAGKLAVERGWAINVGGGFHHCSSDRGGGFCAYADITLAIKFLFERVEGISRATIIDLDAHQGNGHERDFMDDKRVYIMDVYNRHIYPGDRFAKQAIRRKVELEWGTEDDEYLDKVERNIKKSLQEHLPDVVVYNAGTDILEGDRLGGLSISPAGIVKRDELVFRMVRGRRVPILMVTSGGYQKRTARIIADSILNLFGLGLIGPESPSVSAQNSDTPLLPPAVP

[1] = Metabolic stability in human liver microsomes assessed as half-life measured upto 6 hrs in presence of NADPH generating system by HPLC-MS/MS analysis; type: ADME, Microsome
[2] = Antiproliferative activity against mouse MCA-205 cells after 72 hrs by CellTiter Glo assay; type: functional, cell-based; conditions: MCA-205, 72 h
[3] = Toxicity in C57BL/6 mouse allografted with mouse MCA-205 cells assessed as effect on body weight at 0.1 to 0.5 mg/kg, IT(Intratumoral); type: organism-based; conditions: in vivo, other, dose 0.1-0.5 mg/kg
HT-29 = assay: Induction of DNA damage in human HT-29 cells at 0.5 to 10 nM assessed as increase in gamma-H2AX level and measured after 24 hrs by Western blot analysis; type: functional, cell-based; conditions: dose 0.5-10 nM
Tubulin = assay: Inhibition of tubulin polymerization in human HeLa cells assessed as microtubule network polymerization after 30 mins by immunofluorescence analysis; type: cell-based
[4] = biological target: T2, Protein deacetylase HDAC6 (Homo sapiens, UniProt Q9UBN7); assay: Inhibition of HDAC6 (unknown origin) measured by fluorometry assay
T2 sequence (Q9UBN7 whole entry): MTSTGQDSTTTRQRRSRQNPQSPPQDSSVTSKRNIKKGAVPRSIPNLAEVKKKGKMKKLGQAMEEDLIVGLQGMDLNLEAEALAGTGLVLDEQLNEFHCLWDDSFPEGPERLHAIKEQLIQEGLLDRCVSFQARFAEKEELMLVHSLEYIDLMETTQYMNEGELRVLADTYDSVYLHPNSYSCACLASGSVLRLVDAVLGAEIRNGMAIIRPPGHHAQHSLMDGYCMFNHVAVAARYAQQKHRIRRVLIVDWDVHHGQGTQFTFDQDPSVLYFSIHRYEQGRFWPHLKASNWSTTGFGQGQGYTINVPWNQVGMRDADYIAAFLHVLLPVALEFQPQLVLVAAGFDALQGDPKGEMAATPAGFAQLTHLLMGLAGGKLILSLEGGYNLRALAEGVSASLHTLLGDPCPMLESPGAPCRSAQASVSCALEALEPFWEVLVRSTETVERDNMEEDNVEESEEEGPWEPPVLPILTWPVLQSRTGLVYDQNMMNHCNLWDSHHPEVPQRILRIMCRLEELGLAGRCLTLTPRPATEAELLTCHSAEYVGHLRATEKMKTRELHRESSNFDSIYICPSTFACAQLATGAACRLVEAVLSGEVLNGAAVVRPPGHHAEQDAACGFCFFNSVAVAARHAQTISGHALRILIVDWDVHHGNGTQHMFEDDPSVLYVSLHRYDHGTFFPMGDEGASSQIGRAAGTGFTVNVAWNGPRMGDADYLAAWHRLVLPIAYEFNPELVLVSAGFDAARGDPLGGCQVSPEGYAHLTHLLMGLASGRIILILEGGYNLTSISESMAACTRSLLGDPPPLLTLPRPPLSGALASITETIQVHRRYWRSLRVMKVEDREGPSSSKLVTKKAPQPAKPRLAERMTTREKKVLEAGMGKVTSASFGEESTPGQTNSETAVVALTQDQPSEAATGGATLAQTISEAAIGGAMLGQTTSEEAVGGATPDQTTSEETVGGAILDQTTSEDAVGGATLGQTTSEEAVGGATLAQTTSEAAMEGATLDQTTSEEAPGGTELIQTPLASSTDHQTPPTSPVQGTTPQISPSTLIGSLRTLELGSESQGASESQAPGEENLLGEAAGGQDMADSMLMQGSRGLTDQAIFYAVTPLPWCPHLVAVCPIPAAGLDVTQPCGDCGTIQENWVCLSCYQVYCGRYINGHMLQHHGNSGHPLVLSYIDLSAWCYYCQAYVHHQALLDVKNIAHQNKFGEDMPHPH

MIA PaCa-2 = assay: Antiproliferative activity against human MIA PaCa-2 cells after 72 hrs by CellTiter Glo assay; type: functional, cell-based; conditions: MIA PaCa-2, 72 h
NCI-N87 = assay: Antiproliferative activity against human NCI-N87 cells after 72 hrs by CellTiter Glo assay; type: functional, cell-based; conditions: NCI-N87, 72 h
MCF7 = assay: Antiproliferative activity against human MCF7 cells after 72 hrs by CellTiter Glo assay; type: functional, cell-based; conditions: MCF7, 72 h
[5] = biological target: T3, Histone deacetylase 8 (Homo sapiens) (UniProt Q9BY41); assay: Inhibition of HDAC8 in human HT-29 cells assessed as increase in SMC3 acetylation at 0.5 to 100 nM measured after 30 mins by western blot analysis; type: cell-based; conditions: dose 0.5-100 nM
T3 sequence (whole entry): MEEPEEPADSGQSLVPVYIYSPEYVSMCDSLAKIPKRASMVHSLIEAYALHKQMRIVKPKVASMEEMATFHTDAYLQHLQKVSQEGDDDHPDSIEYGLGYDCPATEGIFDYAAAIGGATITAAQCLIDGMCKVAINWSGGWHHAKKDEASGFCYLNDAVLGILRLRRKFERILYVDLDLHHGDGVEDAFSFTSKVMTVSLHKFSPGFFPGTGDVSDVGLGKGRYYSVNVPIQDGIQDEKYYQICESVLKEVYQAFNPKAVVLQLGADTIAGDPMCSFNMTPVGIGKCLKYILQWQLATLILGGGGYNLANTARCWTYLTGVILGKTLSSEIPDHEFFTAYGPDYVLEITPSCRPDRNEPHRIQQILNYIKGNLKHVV

## COc1ccc(N(C)c2cc(C#N)nc3ccccc23)cc1/C=C/C(=O)NO
Histone deacetylase 11
  IC50: 1900 nM
[1]
  half-life: 32 h
[2]
  IC50: 2.78 nM
[3]
  Activity: Non-Toxic
HT-29
  Activity: Active
Tubulin
  IC50: 20 nM
[4]
  IC50: 1000 nM
MIA PaCa-2
  IC50: 0.94 nM
NCI-N87
  IC50: 0.1 nM
MCF7
  IC50: 0.78 nM
[5]
  inhibition: Active
